Consider five compounds from patent publication US20250074911A1, “MACROCYCLIC BTK INHIBITORS” (Crossfire Oncology Holding B.V., priority 2021, published 2025).

One test addresses wt-BTK (Homo sapiens (Human), UniProt Q06187). In words: Binding kinetics measurements (Surface Plasmon Resonance) on wt-BTK. To be noted: for Tau (h) wt-BTK (Act): target residence time, SPR; for Kd: binding affinity by Surface Plasmon Resonance (SPR). In outline:
(§1)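 Constants (ka, kd, KD) are geometric means of duplicates from single cycle SPR at 22° C, with compound at 3.16-316 nM in five steps. Residence time for induced-fit binders derived per a two-state model.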

For test [1], the target named is full-length BTK C481S enzyme (Homo sapiens (Human), UniProt Q06187, C481S). In words: Biochemical kinase assay BTK C481S (IMAP). In outline:
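Full-length BTK C481S (1.2 nM) was pre-incubated with compound for 1 h at room temperature in the dark, then reacted with fluorescein-labelled MBP-derived peptide (50 nM) and ATP (7 μM) for 2 h. Reactions were quenched with IMAP binding solution, and IC50 values were derived from fluorescence polarization.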

The next test addresses BTK C481S (Homo sapiens (Human), UniProt Q06187, C481S). In words: Binding kinetics measurements (Surface Plasmon Resonance) on BTK C481S. To be noted: for Kd: binding affinity by Surface Plasmon Resonance (SPR); for Tau (h) BTK C418S (Act): target residence time for BTK C481S, SPR. In outline:
as §1

Sequence of BTK C481S (Q06187 whole entry C481S): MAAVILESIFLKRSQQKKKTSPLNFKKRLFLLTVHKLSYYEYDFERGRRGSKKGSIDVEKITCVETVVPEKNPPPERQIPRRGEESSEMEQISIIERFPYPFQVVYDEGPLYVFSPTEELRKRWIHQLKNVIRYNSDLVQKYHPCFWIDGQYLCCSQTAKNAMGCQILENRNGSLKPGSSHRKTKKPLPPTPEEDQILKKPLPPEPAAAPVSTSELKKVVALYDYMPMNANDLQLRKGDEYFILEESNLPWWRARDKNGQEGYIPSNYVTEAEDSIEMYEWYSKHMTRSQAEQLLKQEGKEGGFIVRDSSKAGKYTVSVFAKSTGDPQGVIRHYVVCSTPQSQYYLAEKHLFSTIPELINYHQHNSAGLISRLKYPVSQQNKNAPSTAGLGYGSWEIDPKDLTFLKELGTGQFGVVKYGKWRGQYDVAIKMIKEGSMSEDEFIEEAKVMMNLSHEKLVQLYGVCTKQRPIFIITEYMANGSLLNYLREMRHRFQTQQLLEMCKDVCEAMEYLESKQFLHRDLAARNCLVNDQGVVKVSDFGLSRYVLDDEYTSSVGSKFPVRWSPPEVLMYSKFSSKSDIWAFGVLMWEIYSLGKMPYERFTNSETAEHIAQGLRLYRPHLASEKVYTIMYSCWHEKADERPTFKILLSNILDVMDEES
Sequence of full-length BTK C481S enzyme (Q06187 whole entry C481S): as above
Sequence of wt-BTK (Q06187 whole entry): as the sequence (Q06187 whole entry C481S) above, with S481C counted along it

Consider `N#Cc1ccnc(NC(=O)c2ccc(-c3nc4n5c(cnc(N)c35)/C=C/CCCCCC(=O)N[C@@H]3CC[C@@H]4C3)cc2)c1` [Example 204], for which the “Tau (h) wt-BTK (Act)” value on wt-BTK was 5.64 h. The same compound gave an IC50 in test [1] of less than 5 nM. This compound yielded a Kd on BTK C481S of less than 5 nM.

Regarding `N#Cc1ccnc(NC(=O)c2ccc(-c3nc4n5c(cnc(N)c35)/C=C/CCOCCC(=O)N[C@@H]3CC[C@@H]4C3)cc2)c1` [Example 201], the “Tau (h) wt-BTK (Act)” value at wt-BTK is given as 10.14 h. Besides, the IC50 in test [1] was less than 5 nM. Further, at BTK C481S, the “Tau (h) BTK C418S (Act)” value was 1.91 h.

As to `Nc1ncc2c3c1c(-c1ccc(C(=O)Nc4cc(C(F)(F)F)ccn4)cc1)nn3[C@@H]1CCC[C@H](C1)NC(=O)CCOC/C=C/2` [Example 25], at wt-BTK, the Kd is less than 5 nM and the “Tau (h) wt-BTK (Act)” value turned out to be 9.45 h. Besides, the IC50 in test [1] was less than 5 nM. For the same compound, at BTK C481S, the Kd is less than 5 nM and the “Tau (h) BTK C418S (Act)” value is recorded as 12.17 h.

Consider `N#Cc1ccnc(NC(=O)c2ccc(-c3nc4n5c(cnc(N)c35)/C=C/CCCCCC(=O)N[C@@H]3CCC[C@@H]4C3)cc2)c1` [Example 184], for which, on wt-BTK, the “Tau (h) wt-BTK (Act)” value is recorded as 5.55 h. In addition, the IC50 in test [1] was less than 5 nM. Further, at BTK C481S, the Kd is less than 5 nM and the “Tau (h) BTK C418S (Act)” value turned out to be 2.43 h.

Regarding `C[C@@H]1CC(=O)N[C@@H]2CCC[C@H](C2)n2nc(-c3ccc(C(=O)Nc4cc(C(F)(F)F)ccn4)cc3)c3c(N)ncc(c32)/C=C/CCN1` [Example 45], at wt-BTK, the Kd is less than 5 nM and the “Tau (h) wt-BTK (Act)” value is on record as 4.42 h. This compound returned an IC50 in test [1] of less than 5 nM. For the same compound, at BTK C481S, the Kd is less than 5 nM and the “Tau (h) BTK C418S (Act)” value came to 3.17 h.

The term IC50 denotes the concentration needed to halve the response being measured. The low end stands for higher potency, the high end for lower potency. The Kd is a measure of binding affinity in units of concentration. Read a high Kd as lower affinity.
